The source of these data is patent US12679822B2, “Alkenyl pyrimidine compound, preparation method therefor, and application thereof” (Hongyun Biotech Co., Ltd., priority 2020, dated 2026).

Common to all, as to type: cell-based
Assay [1] deals with BaF3 cell lines stably transfected with kinase EGFR Del/T790M/C797S (Homo sapiens, UniProt P00533, T790M/C797S, cells depend on it, form not given). The assay can be described thus: Growth inhibition of BaF3 cell line stably transfected with kinase EGFR Del/T790M/C797S (MTS). The following applies: 48 h, read-out: growth inhibitory activity IC50, Del/T790M/C797S. On the procedure: (§1) Biological Activity Assay: Growth Inhibitory Activity of Compounds on Cell Lines Stably Transfected with Kinase
(§2) The activity of compounds against various mutants of kinase EGFR was evaluated by their effect of inhibiting growth of BaF3 cell lines stably transfected with kinase. The specific test method was given as follows:
(§3) 1) Culture medium: DMEM (Dulbecco's modified eagle medium) or RPMI 1640 (containing 10% fetal bovine serum, 100 μg/mL ampicillin, 100 μg/mL streptomycin).
(§4) 2) Reagent: MTS reaction solution (containing 2 mg/mL of MTS [3-(4,5-di methylthiazol-2-yl)-5-(3-carboxymethoxyphenyl)-2-(4-sulfophenyl)-2H-tetrazolium, inner Salt]; 100 μg/mL of PES (phenazine […])).
(§5) 3) Compound test: cells were incubated into a 96-well culture plate, the volume of cytosol was 90 μL, and then 10 μL of the compound at each gradient concentration was added. That is, the highest concentration was 10 μM, which was diluted stepwise by ⅓, and 8 concentration points were set in total; 0.1% DMSO (dimethyl sulfoxide) was contained in the system. The cell plate with uniformly mixed compound was cultured in a cell culture incubator (37° C.; 5% […]) for 48 h, then 20 μL of MTS reaction solution was added, uniformly mixed and incubated in the cell culture incubator (37° C.; 5% CO2) for 1-4 h; OD values at 490 nm were measured by a microplate reader (VARIOSKAN FLASH, Thermo). Two parallels were set in each group of experiments, with 0.1% (a final concentration) DMSO as a negative control, and a culture medium without cells and compounds as a blank control. The cell growth inhibition rate was calculated by the following formula: Cell growth inhibition rate %=1−(ODexperimental group−ODblank group)/(ODnegative group−ODblank group)×100%.
(§6) 4) IC50 calculation: The semi-inhibitory concentration of the compounds acting on cells was calculated using GradPad Prism 5 software according to the measured cell growth inhibition rate.

Assay [2] addresses BaF3 cell lines stably transfected with kinase EGFR L858R/T790M/C797S (Homo sapiens, UniProt P00533, T790M/C797S/L858R, cells depend on it). The assay can be described thus: Growth inhibition of BaF3 cell line stably transfected with kinase EGFR L858R/T790M/C797S (MTS). As to conditions: 48 h, read-out: growth inhibitory activity IC50, L858R/T790M/C797S. On the procedure: as §1, §2, §3, §4, §5, §6

For assay [3], the target named is BaF3 cell lines stably transfected with kinase EGFR Del (Homo sapiens, UniProt P00533, cells depend on it, form not given). The assay can be described thus: Growth inhibition of BaF3 cell line stably transfected with kinase EGFR Del (MTS). As to conditions: 48 h, read-out: growth inhibitory activity IC50, Del. On the procedure:
as §1, §2, §3, §4, §5, §6

Assay [4] has as its target BaF3 cell lines stably transfected with kinase EGFR L858R/T790M (Homo sapiens, UniProt P00533, T790M/L858R, cells depend on it). The assay can be described thus: Growth inhibition of BaF3 cell line stably transfected with kinase EGFR L858R/T790M (MTS). As to conditions: 48 h, read-out: growth inhibitory activity IC50, L858R/T790M. On the procedure: as §1, §2, §3, §4, §5, §6

For assay [5], the target named is BaF3 cell lines stably transfected with kinase EGFR L858R (Homo sapiens, UniProt P00533, L858R, cells depend on it). The assay can be described thus: Growth inhibition of BaF3 cell line stably transfected with kinase EGFR L858R (MTS). As to conditions: 48 h, read-out: growth inhibitory activity IC50, L858R. On the procedure: as §1, §2, §3, §4, §5, §6
The target in assay [6] is BaF3 cell lines stably transfected with kinase EGFR Del/T790M (Homo sapiens, UniProt P00533, T790M, cells depend on it, form not given). The assay can be described thus: Growth inhibition of BaF3 cell line stably transfected with kinase EGFR Del/T790M (MTS). The following applies: 48 h, read-out: growth inhibitory activity IC50, Del/T790M. On the procedure: as §1, §2, §3, §4, §5, §6

The structures appear in SMILES notation.

Chain of BaF3 cell lines stably transfected with kinase EGFR L858R/T790M (P00533 whole entry T790M/L858R): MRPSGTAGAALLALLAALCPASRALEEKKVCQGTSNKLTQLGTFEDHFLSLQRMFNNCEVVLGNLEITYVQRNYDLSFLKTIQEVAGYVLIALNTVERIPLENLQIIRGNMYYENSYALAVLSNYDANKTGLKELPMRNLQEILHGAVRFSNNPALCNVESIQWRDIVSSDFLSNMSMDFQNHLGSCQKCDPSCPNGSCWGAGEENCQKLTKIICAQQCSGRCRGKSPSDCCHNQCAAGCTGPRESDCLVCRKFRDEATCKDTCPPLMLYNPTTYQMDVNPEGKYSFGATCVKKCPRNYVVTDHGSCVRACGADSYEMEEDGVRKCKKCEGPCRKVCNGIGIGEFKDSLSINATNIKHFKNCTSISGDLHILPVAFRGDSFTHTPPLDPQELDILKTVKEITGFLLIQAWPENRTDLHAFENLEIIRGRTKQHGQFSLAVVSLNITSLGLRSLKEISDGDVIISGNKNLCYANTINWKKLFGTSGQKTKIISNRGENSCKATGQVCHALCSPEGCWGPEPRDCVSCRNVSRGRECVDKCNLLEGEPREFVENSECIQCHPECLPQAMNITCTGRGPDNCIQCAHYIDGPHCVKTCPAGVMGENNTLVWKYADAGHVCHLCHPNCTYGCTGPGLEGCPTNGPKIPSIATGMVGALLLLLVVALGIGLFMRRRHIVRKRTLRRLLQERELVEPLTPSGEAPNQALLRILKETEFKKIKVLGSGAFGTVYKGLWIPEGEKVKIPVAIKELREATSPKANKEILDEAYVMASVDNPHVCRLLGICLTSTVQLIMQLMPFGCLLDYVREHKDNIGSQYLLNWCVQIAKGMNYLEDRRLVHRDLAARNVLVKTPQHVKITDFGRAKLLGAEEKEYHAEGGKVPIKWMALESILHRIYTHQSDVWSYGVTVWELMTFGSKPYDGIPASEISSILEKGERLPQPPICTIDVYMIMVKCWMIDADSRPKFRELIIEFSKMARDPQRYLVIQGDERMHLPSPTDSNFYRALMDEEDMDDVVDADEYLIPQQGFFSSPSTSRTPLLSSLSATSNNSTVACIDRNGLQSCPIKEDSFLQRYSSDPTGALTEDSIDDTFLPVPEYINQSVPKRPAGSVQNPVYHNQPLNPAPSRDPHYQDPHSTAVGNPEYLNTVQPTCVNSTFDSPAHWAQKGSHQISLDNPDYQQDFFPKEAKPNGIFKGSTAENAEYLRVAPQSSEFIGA
Chain of BaF3 cell lines stably transfected with kinase EGFR L858R (P00533 whole entry L858R): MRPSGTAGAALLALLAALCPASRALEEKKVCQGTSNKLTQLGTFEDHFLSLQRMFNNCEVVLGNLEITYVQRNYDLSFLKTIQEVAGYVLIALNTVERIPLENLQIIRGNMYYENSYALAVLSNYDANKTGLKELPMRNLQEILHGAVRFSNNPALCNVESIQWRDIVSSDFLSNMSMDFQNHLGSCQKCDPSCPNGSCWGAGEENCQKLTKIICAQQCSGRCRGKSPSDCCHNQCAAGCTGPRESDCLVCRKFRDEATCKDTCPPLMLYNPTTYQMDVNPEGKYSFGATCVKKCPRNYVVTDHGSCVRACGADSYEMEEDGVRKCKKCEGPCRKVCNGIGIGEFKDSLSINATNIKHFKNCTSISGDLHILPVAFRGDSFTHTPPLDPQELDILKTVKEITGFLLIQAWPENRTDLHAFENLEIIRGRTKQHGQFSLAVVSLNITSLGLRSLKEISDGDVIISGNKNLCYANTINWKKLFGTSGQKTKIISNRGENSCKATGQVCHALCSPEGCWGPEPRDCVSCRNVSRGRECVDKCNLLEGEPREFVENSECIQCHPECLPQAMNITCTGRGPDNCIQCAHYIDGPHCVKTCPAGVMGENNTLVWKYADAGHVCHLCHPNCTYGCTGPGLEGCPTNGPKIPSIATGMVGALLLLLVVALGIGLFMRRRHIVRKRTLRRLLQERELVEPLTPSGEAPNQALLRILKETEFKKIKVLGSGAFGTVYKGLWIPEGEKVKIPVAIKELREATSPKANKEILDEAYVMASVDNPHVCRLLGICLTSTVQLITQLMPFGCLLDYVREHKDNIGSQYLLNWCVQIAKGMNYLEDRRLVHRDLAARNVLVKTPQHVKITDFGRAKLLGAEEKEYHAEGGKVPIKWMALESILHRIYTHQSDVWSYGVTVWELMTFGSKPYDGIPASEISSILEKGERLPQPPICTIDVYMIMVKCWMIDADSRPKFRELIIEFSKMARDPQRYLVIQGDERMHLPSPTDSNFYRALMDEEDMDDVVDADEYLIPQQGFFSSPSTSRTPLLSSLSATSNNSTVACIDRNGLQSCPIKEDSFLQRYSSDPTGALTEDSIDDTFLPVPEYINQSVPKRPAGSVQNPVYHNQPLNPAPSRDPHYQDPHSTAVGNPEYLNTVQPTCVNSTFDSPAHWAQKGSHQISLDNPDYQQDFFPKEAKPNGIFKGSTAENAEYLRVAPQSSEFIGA
Chain of BaF3 cell lines stably transfected with kinase EGFR L858R/T790M/C797S (P00533 whole entry T790M/C797S/L858R): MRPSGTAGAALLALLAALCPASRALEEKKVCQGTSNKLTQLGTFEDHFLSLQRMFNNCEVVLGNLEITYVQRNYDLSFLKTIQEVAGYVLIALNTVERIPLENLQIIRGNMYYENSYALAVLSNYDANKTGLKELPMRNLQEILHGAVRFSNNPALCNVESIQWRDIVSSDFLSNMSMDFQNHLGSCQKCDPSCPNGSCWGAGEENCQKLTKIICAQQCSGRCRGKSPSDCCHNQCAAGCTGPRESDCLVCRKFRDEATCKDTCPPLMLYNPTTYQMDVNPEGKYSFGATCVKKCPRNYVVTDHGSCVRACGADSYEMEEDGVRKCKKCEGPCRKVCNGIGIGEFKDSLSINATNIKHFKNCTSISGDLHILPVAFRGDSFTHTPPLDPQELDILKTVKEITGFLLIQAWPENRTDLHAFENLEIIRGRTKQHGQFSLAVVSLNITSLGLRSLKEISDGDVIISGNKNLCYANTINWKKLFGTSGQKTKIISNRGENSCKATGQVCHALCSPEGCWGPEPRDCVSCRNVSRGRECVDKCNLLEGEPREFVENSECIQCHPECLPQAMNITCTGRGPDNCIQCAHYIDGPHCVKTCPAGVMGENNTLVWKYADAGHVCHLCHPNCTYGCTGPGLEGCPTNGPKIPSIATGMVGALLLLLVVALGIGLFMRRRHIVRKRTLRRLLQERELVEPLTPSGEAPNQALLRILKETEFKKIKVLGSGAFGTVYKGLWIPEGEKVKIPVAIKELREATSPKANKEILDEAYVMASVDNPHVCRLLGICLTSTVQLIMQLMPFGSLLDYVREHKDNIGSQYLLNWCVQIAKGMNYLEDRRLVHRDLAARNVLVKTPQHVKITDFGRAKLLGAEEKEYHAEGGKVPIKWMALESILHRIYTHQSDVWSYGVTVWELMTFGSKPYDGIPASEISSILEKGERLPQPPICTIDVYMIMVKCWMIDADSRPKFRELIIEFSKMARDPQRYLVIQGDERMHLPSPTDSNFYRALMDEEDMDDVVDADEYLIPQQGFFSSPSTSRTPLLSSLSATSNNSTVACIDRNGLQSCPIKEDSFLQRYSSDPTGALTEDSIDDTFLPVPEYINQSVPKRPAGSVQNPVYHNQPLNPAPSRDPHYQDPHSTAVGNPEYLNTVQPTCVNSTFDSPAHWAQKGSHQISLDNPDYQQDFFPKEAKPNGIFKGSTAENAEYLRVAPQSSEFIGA
Chain of BaF3 cell lines stably transfected with kinase EGFR Del (P00533 with tags, fused parts or gaps DEL746-750): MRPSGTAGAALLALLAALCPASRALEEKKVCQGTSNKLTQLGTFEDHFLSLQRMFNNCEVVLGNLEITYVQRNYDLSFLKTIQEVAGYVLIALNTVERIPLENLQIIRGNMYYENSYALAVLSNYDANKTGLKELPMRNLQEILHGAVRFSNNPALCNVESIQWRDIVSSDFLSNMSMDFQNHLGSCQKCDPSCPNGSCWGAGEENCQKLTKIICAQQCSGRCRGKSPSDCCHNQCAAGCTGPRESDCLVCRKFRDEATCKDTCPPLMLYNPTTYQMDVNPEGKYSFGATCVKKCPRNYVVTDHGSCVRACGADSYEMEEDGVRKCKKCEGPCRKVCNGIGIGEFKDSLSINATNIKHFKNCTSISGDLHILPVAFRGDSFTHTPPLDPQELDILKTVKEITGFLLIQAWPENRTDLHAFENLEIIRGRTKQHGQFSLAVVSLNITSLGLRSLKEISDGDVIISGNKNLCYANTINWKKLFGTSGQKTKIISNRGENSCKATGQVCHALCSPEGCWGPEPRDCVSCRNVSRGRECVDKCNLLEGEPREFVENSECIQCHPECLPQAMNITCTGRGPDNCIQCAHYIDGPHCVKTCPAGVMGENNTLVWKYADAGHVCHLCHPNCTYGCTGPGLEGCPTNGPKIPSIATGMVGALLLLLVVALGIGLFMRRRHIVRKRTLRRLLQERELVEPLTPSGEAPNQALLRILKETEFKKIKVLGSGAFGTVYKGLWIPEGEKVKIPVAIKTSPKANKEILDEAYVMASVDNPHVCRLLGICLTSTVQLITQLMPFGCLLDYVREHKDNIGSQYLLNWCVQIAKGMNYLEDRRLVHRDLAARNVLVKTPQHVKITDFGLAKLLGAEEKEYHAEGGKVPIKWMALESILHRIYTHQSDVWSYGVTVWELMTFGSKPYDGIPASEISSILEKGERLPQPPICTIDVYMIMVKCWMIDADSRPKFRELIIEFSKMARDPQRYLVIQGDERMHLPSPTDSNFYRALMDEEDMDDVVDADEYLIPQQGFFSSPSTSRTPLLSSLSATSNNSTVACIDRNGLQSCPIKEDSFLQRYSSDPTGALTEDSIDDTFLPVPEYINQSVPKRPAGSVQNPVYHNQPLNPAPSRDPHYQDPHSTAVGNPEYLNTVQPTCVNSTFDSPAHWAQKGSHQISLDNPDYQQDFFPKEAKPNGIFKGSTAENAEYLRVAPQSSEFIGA

With `C=Cc1cnc(Nc2cc(CC)c(N3CCC(N4CCN(C)CC4)CC3)cc2OC)nc1Nc1ccc2nccnc2c1P(C)(C)=O` [Compound I-1], the GI50 in assay [1], in assay [2], in assay [3], in assay [4], in assay [5] and in assay [6] was at most 0.05 µM in each case.
Regarding `C=Cc1cnc(Nc2cc(CC)c(N3CCC(N(C)C)CC3)cc2OC)nc1Nc1ccc2nccnc2c1P(C)(C)=O` [Compound I-2], the GI50 in assay [1], in assay [2], in assay [3], in assay [4], in assay [5] and in assay [6] was at most 0.05 µM throughout.
`C=Cc1cnc(Nc2cc(CC)c(N3CCC(C(C)C)C3)cc2OC)nc1Nc1ccc2nccnc2c1P(C)(C)=O` (stereo not drawn) [Compound I-3]: the GI50 is at most 0.05 µM in assay [1]; at most 0.05 µM in assay [2]; 0.05 to 0.5 µM in assay [3]; 0.05 to 0.5 µM in assay [4]; at most 0.05 µM in assay [5]; at most 0.05 µM in assay [6].
Take `C=Cc1cnc(Nc2cc(CC)c(N3CCN(C)CC3)cc2OC)nc1Nc1ccc2nccnc2c1P(C)(C)=O` [Compound I-4]: the GI50 in assay [1], in assay [2], in assay [3], in assay [4], in assay [5] and in assay [6] was at most 0.05 µM each time.
Regarding `C=Cc1cnc(Nc2cc(CC)c(N3CCC(N4CCN(C)CC4)CC3)nc2OC)nc1Nc1ccc2nccnc2c1P(C)(C)=O` [Compound I-5], the GI50 in assay [1], in assay [2], in assay [3], in assay [4], in assay [5] and in assay [6] was at most 0.05 µM throughout.
For the compound `C=Cc1cnc(Nc2cc(CC)c(N3CCC(N4CCN(C)CC4)CC3)cc2OC(F)(F)F)nc1Nc1ccc2nccnc2c1P(C)(C)=O` [Compound I-6], the GI50 in assay [1] is at most 0.05 µM; in assay [2], at most 0.05 µM; in assay [3], 0.05 to 0.5 µM; in assay [4], at most 0.05 µM; in assay [5], at most 0.05 µM; in assay [6], at most 0.05 µM.
With `C=Cc1cnc(Nc2cc(CC3CC3)c(N3CCC(N4CCN(C)CC4)CC3)cc2OC)nc1Nc1ccc2nccnc2c1P(C)(C)=O` [Compound I-7], the GI50 in assay [1], in assay [2], in assay [3], in assay [4], in assay [5] and in assay [6] was at most 0.05 µM each time.
Consider `C=Cc1cnc(Nc2cc(C)c(N3CCC(N4CCN(C)CC4)CC3)cc2OC)nc1Nc1ccc2nccnc2c1P(C)(C)=O` [Compound I-9], for which the GI50 in assay [1], in assay [2], in assay [3], in assay [4], in assay [5] and in assay [6] was at most 0.05 µM throughout.
For `CCc1cc(Nc2ncc(C=C(C)C)c(Nc3ccc4nccnc4c3P(C)(C)=O)n2)c(OC)cc1N1CCC(N2CCN(C)CC2)CC1` [Compound I-10], the GI50 in assay [1] is 0.05 to 0.5 µM; in assay [2], 0.05 to 0.5 µM; in assay [3] it was at most 0.05 µM; in assay [4] it was 0.05 to 0.5 µM; in assay [5] it was at most 0.05 µM; in assay [6], 0.5 to 2.5 µM.
`CCc1cc(Nc2ncc(/C=C/C3CC3)c(Nc3ccc4nccnc4c3P(C)(C)=O)n2)c(OC)cc1N1CCC(N2CCN(C)CC2)CC1` [Compound I-11]: the GI50 in assay [1] was 0.05 to 0.5 µM; in assay [2] it was 0.05 to 0.5 µM; in assay [3], at most 0.05 µM; in assay [4], 0.05 to 0.5 µM; in assay [5] it was at most 0.05 µM; in assay [6], 0.05 to 0.5 µM.
On to `CCc1cc(Nc2ncc(C3=CCCC3)c(Nc3ccc4nccnc4c3P(C)(C)=O)n2)c(OC)cc1N1CCC(N2CCN(C)CC2)CC1` [Compound I-13], for which the GI50 in assay [1] was 0.05 to 0.5 µM; in assay [2] it was 0.05 to 0.5 µM; in assay [3] it was at most 0.05 µM; in assay [4], 0.05 to 0.5 µM; in assay [5] it was at most 0.05 µM; in assay [6], 0.05 to 0.5 µM.
As for `CCc1cc(Nc2ncc(/C=C/c3ccccc3)c(Nc3ccc4nccnc4c3P(C)(C)=O)n2)c(OC)cc1N1CCC(N2CCN(C)CC2)CC1` [Compound I-14], the GI50 in assay [1] is 0.05 to 0.5 µM; in assay [2] it was 0.05 to 0.5 µM; in assay [3] it was 0.05 to 0.5 µM; in assay [4], 0.5 to 2.5 µM; in assay [5] it was at most 0.05 µM; in assay [6] it was 0.05 to 0.5 µM.
Take `C=C(C)c1cnc(Nc2cc(CC)c(N3CCC(N4CCN(C)CC4)CC3)cc2OC)nc1Nc1ccc2nccnc2c1P(C)(C)=O` [Compound I-15]: the GI50 in assay [1], in assay [2], in assay [3], in assay [4], in assay [5] and in assay [6] was at most 0.05 µM throughout.
As for `C=Cc1cnc(Nc2cc(C(C)C)c(N3CCC(N4CCN(C)CC4)CC3)cc2OC)nc1Nc1ccc2nccnc2c1P(C)(C)=O` [Compound I-16], the GI50 in assay [1], in assay [2], in assay [3], in assay [4], in assay [5] and in assay [6] was 0.05 to 0.5 µM throughout.
In the case of `C=Cc1cnc(Nc2cc(C3CC3)c(N3CCC(N4CCN(C)CC4)CC3)cc2OC)nc1Nc1ccc2nccnc2c1P(C)(C)=O` [Compound I-17], the GI50 in assay [1], in assay [2], in assay [3], in assay [4], in assay [5] and in assay [6] was 0.05 to 0.5 µM in each case.
Take `C=Cc1cnc(Nc2ccc(N3CCC(N4CCN(C)CC4)CC3)c(CC)c2)nc1Nc1ccc2nccnc2c1P(C)(C)=O` [Compound I-18]: the GI50 in assay [1] is at most 0.05 µM; in assay [2] it was at most 0.05 µM; in assay [3], 0.05 to 0.5 µM; in assay [4], 0.05 to 0.5 µM; in assay [5], at most 0.05 µM; in assay [6], 0.05 to 0.5 µM.
Take `C=C(C)c1cnc(Nc2ccc(N3CCC(N4CCN(C)CC4)CC3)nc2OC)nc1Nc1ccc2nccnc2c1P(C)(C)=O` [Compound I-19]: the GI50 in assay [1] was 0.5 to 2.5 µM; in assay [2] it was 0.05 to 0.5 µM; in assay [3], at most 0.05 µM; in assay [4], at most 0.05 µM; in assay [5] it was 0.05 to 0.5 µM; in assay [6] it was 0.05 to 0.5 µM.
As for `C=C(C)c1cnc(Nc2cc(C)c(N3CCC(N4CCN(C)CC4)CC3)nc2OC)nc1Nc1ccc2nccnc2c1P(C)(C)=O` [Compound I-20], the GI50 in assay [1] was 0.5 to 2.5 µM; in assay [2], 0.5 to 2.5 µM; in assay [3], 0.5 to 2.5 µM; in assay [4], 0.05 to 0.5 µM; in assay [5], 0.05 to 0.5 µM; in assay [6], 0.05 to 0.5 µM.
Turning to `C=Cc1cnc(Nc2cccc(C3CCN(C)CC3)c2)nc1Nc1ccc2nccnc2c1P(C)(C)=O` [Compound I-22], the GI50 in assay [1] is 0.5 to 2.5 µM; in assay [2], 0.05 to 0.5 µM; in assay [3], 0.05 to 0.5 µM; in assay [4], at most 0.05 µM; in assay [5], 0.05 to 0.5 µM; in assay [6] it was 0.05 to 0.5 µM.
As for `C=Cc1cnc(Nc2cc3c(cc2F)CCN(C)C3)nc1Nc1ccc2nccnc2c1P(C)(C)=O` [Compound I-23], the GI50 in assay [1] fell in the range of 0.5 to 2.5 µM; in assay [2] it was 0.05 to 0.5 µM; in assay [3], 0.05 to 0.5 µM; in assay [4] it was 0.05 to 0.5 µM; in assay [5], 0.05 to 0.5 µM; in assay [6], 0.05 to 0.5 µM.
In the case of `C=Cc1cnc(Nc2ccc3c(c2)CCN(C)CC3)nc1Nc1ccc2nccnc2c1P(C)(C)=O` [Compound I-24], the GI50 in assay [1] was 0.05 to 0.5 µM; in assay [2] it was 0.05 to 0.5 µM; in assay [3], 0.05 to 0.5 µM; in assay [4], 0.05 to 0.5 µM; in assay [5] it was at most 0.05 µM; in assay [6], 0.05 to 0.5 µM.
